Assay results: ChEMBL document CHEMBL1201862, “PubChem BioAssay data set” (2004)
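Growth conditions: 96-well plates. Treatment: test compound, 48 hours, 5 concentrations. Analysis: linear interpolation between bracketing concentrations; unreached endpoints set to highest concentration. At the GI50, growth is halved.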 Active and inactive are the calls of the source. No stated cut-off is given here; in the data, active = GI50 up to about 1.1 µM and inactive = higher.

Tests used:
Assay in all cases: NCI anticancer screen, dose series, 48 h
T47D = tested on: T47D
SK-MEL-5 = tested on: SK-MEL-5
SK-MEL-2 = tested on: SK-MEL-2
SNB-75 = tested on: SNB-75
SF-268 = tested on: SF-268
UACC-62 = tested on: UACC-62
SN12C = tested on: SN12C
HL-60 = tested on: HL-60
OVCAR-8 = tested on: OVCAR-8
OVCAR-4 = tested on: OVCAR-4
SF-539 = tested on: SF-539
MDA-N = tested on: MDA-N
K562 = tested on: K562
EKVX = tested on: EKVX
LOX IMVI = tested on: LOX IMVI
PC-3 = tested on: PC-3
A498 = tested on: A498
HT-29 = tested on: HT-29
OVCAR-3 = tested on: OVCAR-3
SR = tested on: SR
CCRF-CEM = tested on: CCRF-CEM
HCT-15 = tested on: HCT-15
SF-295 = tested on: SF-295
M14 = tested on: M14
HCC 2998 = tested on: HCC 2998
MDA-MB-435 = tested on: MDA-MB-435
DU-145 = tested on: DU-145
CAKI-1 = tested on: CAKI-1
UO-31 = tested on: UO-31
KM12 = tested on: KM12
ACHN = tested on: ACHN
HOP-62 = tested on: HOP-62
NCI-H460 = tested on: NCI-H460
RXF 393 = tested on: RXF 393
Malme-3M = tested on: Malme-3M
OVCAR-5 = tested on: OVCAR-5
TK-10 = tested on: TK-10
NCI-H522 = tested on: NCI-H522
U-251 = tested on: U-251
SK-MEL-28 = tested on: SK-MEL-28
SK-OV-3 = tested on: SK-OV-3
MOLT-4 = tested on: MOLT-4
COLO 205 = tested on: COLO 205
IGROV-1 = tested on: IGROV-1
MDA-MB-231 = tested on: MDA-MB-231
SNB-19 = tested on: SNB-19
Hs-578T = tested on: Hs-578T
SW-620 = tested on: SW-620
A549 = tested on: A549
MCF7 = tested on: MCF7
NCI-H226 = tested on: NCI-H226
NCI/ADR-RES = tested on: NCI/ADR-RES
HCT-116 = tested on: HCT-116
NCI-H23 = tested on: NCI-H23
RPMI-8226 = tested on: RPMI-8226
UACC-257 = tested on: UACC-257
786-0 = tested on: 786-0
HOP-92 = tested on: HOP-92

Measured: GI50

COc1ccc(CN2C(=O)C(=O)N(C)C2=O)c2ccccc12
> 10 µM: HCT-15
inactive: T47D > 10 µM | SK-MEL-5 > 10 µM | SK-MEL-2 > 10 µM | SNB-75 > 10 µM | SF-268 > 10 µM | UACC-62 > 10 µM | SN12C > 10 µM | HL-60 > 10 µM | OVCAR-8 > 10 µM | OVCAR-4 > 10 µM | SF-539 > 10 µM | MDA-N 7.06 µM | K562 > 10 µM | EKVX > 10 µM | LOX IMVI > 10 µM | PC-3 > 10 µM | A498 > 10 µM | HT-29 > 10 µM | OVCAR-3 > 10 µM | SR > 10 µM | CCRF-CEM > 10 µM | SF-295 > 10 µM | M14 > 10 µM | HCC 2998 > 10 µM | MDA-MB-435 > 10 µM | DU-145 > 10 µM | CAKI-1 > 10 µM | UO-31 > 10 µM | KM12 > 10 µM | ACHN > 10 µM | HOP-62 > 10 µM | NCI-H460 > 10 µM | RXF 393 > 10 µM | Malme-3M > 10 µM | OVCAR-5 > 10 µM | TK-10 > 10 µM | NCI-H522 9.68 µM | U-251 > 10 µM | SK-MEL-28 > 10 µM | SK-OV-3 > 10 µM | MOLT-4 > 10 µM | COLO 205 > 10 µM | IGROV-1 > 10 µM | MDA-MB-231 > 10 µM | SNB-19 > 10 µM | Hs-578T 1.55 µM | SW-620 > 10 µM | A549 > 10 µM | MCF7 > 10 µM | NCI-H226 > 10 µM | NCI/ADR-RES > 10 µM | HCT-116 > 10 µM | NCI-H23 > 10 µM | RPMI-8226 > 10 µM

CC(=O)c1c(O)nnc(-c2ccc(Cl)cc2)c1-c1ccc(Cl)cc1
inactive: T47D 31.5 µM | SK-MEL-5 29 µM | SK-MEL-2 25.1 µM | SF-268 > 100 µM | UACC-62 12.4 µM | UACC-257 39 µM | SN12C 22.3 µM | HL-60 25 µM | 786-0 83.6 µM | OVCAR-8 31.5 µM | OVCAR-4 21.1 µM | SF-539 22.7 µM | MDA-N 33.7 µM | K562 30.4 µM | EKVX 53.3 µM | LOX IMVI 21.7 µM | PC-3 37.4 µM | A498 26.7 µM | HT-29 40.5 µM | OVCAR-3 25.1 µM | SR 27.9 µM | CCRF-CEM 45.7 µM | HOP-92 52.7 µM | SF-295 46.1 µM | M14 65.6 µM | HCC 2998 61.8 µM | MDA-MB-435 29.9 µM | DU-145 54.8 µM | CAKI-1 31.8 µM | KM12 35.2 µM | ACHN 22 µM | NCI-H460 33 µM | RXF 393 38.9 µM | Malme-3M 28.5 µM | OVCAR-5 > 100 µM | TK-10 62.4 µM | U-251 51.9 µM | SK-MEL-28 41.9 µM | SK-OV-3 40.8 µM | MOLT-4 48.5 µM | COLO 205 29.2 µM | IGROV-1 26.2 µM | MDA-MB-231 21.2 µM | SNB-19 > 100 µM | Hs-578T 53.1 µM | SW-620 62.5 µM | A549 29.9 µM | MCF7 32.1 µM | NCI-H226 31.3 µM | NCI/ADR-RES 30.1 µM | HCT-116 58.2 µM | NCI-H23 69.3 µM | RPMI-8226 23.2 µM
24.2 µM: HCT-15
